In patent publication US20210253598A1, “ARYL ANNULATED MACROCYCLIC INDOLE DERIVATIVES” (priority 2017, published 2021):
pIC50: −log10 of the molar value. “And” between values parts separate entries of the source, which are not always exact repeats. Equal entries are not always repeated. Where two headings read alike, the source gives them in different places. Values belong to the compound of their own block, whether it stands above or below them.

Legend:
[1] = 11-membered ring
[2] = the molecule shown is the open-chain precursor; crosslinker bond; 11-membered ring; 2,3-bis(chloromethyl)pyrazine/Cs2CO3/NaI; MeCN; 9.09 mM; 70.0 °C
BCL-XL = BCL-XL (Homo sapiens, UniProt Q07817); test: Protein-protein interaction assay BCL-XL/Bad BH3 peptide, TR-FRET (BCL-XL assay, Assay 2); format: binding; settings: His-BCL-XL / Bad BH3 peptide, median
Procedure: Protein-Protein Interaction Assay: BCL-XL/Bad BH3 Peptide (BCL-XL Assay)
The dose-dependent inhibition by the compounds described in this invention of the interaction between BCL-XL and the BH3 domain of Bad (both human) was determined using a steady state binding competition assay with time-resolved fluorescence energy transfer (TR-FRET) readout. For that purpose BCL-XL (amino acids 1-212, C-terminal fused to a hexahistidine (6×His) tag (SEQ ID 3) and a synthetic Bad BH3-derived peptide of sequence Biotin-PEG2-PEG2-[sequence]-Nle-[sequence]-amide (SEQ ID 4) served as protein receptor and tracer ligand respectively. The recombinant BCL-XL protein (expressed in E. coli) was purchased from BPS Bioscience (San Diego, Calif., USA). The Bad BH3-derived peptide can be obtained from e.g. Biosyntan (Berlin, Germany).
For that, 100-fold concentrated DMSO solutions were prepared by serial dilutions (1:3.4) of a 2 mM stock solution in a clear, 384-well microtiter plate (Greiner Bio-One, Frickenhausen, Germany). From there, 50 nl were transferred in a dark test plate (Greiner Bio-One, Frickenhausen, Germany). The assay was initiated by addition of 2 μl of a 2,5-fold concentrated His-BCL-XL solution (usually for a 1 nM end concentration in 5 μl reaction volume) in aqueous assay buffer [50 mM Tris/HCl pH 7, 100 mM sodium chloride (NaCl), 50 mM potassium fluoride (KF), 0.005% Tween-20, 2 mM DTT, 0.1% bovine gamma globulin (BGG)] to the compounds in the assay plate. This was followed by a 10-minute incubation step at 22° C. for pre-equilibration of the putative complex between His-BCL-XL and the compounds.
The mixture was incubated in the dark for one hour at 22° C. and then overnight at 4° C. The formation of BCL-XL/Bad complexes was determined by measuring the resonance energy transfer of the anti-His- Eu-cryptate antibody to the streptavidin-XL665 present in the reaction. For that purpose, the fluorescence emission at 620 nm and 665 nm after excitation at 330-350 nm was measured in a TR-FRET measuring instrument, for instance a Rubystar or a Pherastar (both from BMG Lab Technologies, Offenburg, Germany) or a Viewlux (Perkin-Elmer). The ratio of the emission at 665 nm and at 622 nm was used as indicator of the amount of BCL-XL/Bad complexes present.
The resulting data (ratio) were normalized, taking 0% inhibition as the mean value of control measurements (usually 32 data points) where all reagents were included. In this case 50 nl DMSO were used instead of compounds. […] IC50 values were determined by regression analysis based on a 4 parameter equation (minimum, maximum, IC50, Hill; Y=Max+(Min−Max)/(1+(X/IC50)^Hill) using the Screener Software (Genedata).

BCL-2 = BCL-2 (Homo sapiens, UniProt P10415); test: Protein-protein interaction assay BCL-2/Bad BH3 peptide, TR-FRET (BCL-2 assay, Assay 3); format: binding; settings: His-BCL-2 / Bad BH3 peptide, median
SUDHL5 [3] = test: Induction of caspase-3/7 activity in SUDHL5 cells (Assay 4); format: cell-based; settings: SUDHL5, 3 hours treatment, Caspase-Glo 3/7, median, read-out: Caspase SUDHL5 [M] (median)
How it was run: (§1)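 Luminescent Caspase-Glo 3/7 read-out in SUDHL5 and SUDHL10 cells after 3 h compound exposure at 37 °C, followed by 1 h reagent incubation.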

SUDHL10 [4] = test: Induction of caspase-3/7 activity in SUDHL10 cells (Assay 4); format: cell-based; settings: SUDHL10, 3 hours treatment, Caspase-Glo 3/7, median, read-out: Caspase SUDHL10 [M] (median)
How it was run: as §1

SUDHL10 [5] = test: Induction of cytotoxicity in SUDHL10 cells, CellTiter-Glo (Assay 6); format: cell-based; settings: SUDHL10, 5 hours incubation, median, read-out: Cytotox SUDHL10 [M] (median)
How it was run: (§2)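 Luminescent ATP readout (CellTiter-Glo, 15 min at room temperature) quantifies cytotoxicity after a 5 h compound exposure at 37 °C.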

MV-4-11 = test: Anti-proliferative effect in MV-4-11 cells, CellTiter-Glo (Assay 7); format: cell-based; settings: MV-4-11, 72 hours incubation, CellTiter-Glo, several values per example, read-out: Antiproli MV-4-11
How it was run: (§3)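 Cells were plated and incubated overnight at 37 °C alongside a day 0 reference plate, then exposed to compound for 72 h. Viability was read by CellTiter-Glo luminescence, and IC50s were calculated using day 0 values and DMSO controls as references.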

AMO-1 = test: Anti-proliferative effect in AMO-1 cells, CellTiter-Glo (Assay 7); format: cell-based; settings: AMO-1, 72 hours incubation, CellTiter-Glo, several values per example, read-out: Antiproli AMO-1
How it was run: as §3

HMC-1-8 = test: Anti-proliferative effect in HMC-1-8 cells, CellTiter-Glo (Assay 7); format: cell-based; settings: HMC-1-8, 72 hours incubation, read-out: Antiproli HMC-1-8
Procedure: Assessment of the Anti-Proliferative Effect of Compounds in Different Cell Lines
The impact of compounds on the proliferation of different cell lines was assessed using the CellTiter-Glo® Luminescent Cell Viability reagent from Promega (G7573).
In parallel, cells were plated in a reference (day 0) plate for time zero determination. Cells were incubated in a humidified incubator at 37° C. overnight.
Rim wells were excluded. The cells were incubated for 72 hours in a humidified incubator at 37° C. The day 0 plate was measured by adding 30 μL/well of CTG solution (CellTiter-Glo® Luminescent Cell Viability reagent, Promega G7573) to time zero wells in the reference plate followed by a 10 minutes incubation and luminescence reading at 0.1 ms. using the PHERAstar FS microplate reader (BMG Labtech).
After 72 hours incubation, the treated plates were measured in the same way as the day 0 plate mentioned above. The Bella DRC Master Sheet was used to calculate IC50s, with CI=day 0 values and C0=DMSO control values.

MCL-1 = MCL-1 (Homo sapiens, UniProt Q07820, K194A/K197A/R201A); test: Protein-protein interaction assay MCL-1/Noxa BH3 peptide, TR-FRET (MCL-1 assay, Assay 1); format: binding; settings: MCL-1 Assay [M] (median), MBP-MCL-1 / Noxa BH3 peptide
How it was run: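 TR-FRET competition between compounds and a biotin-PEG Noxa BH3 tracer for 1 nM MBP-MCL-1 (residues 173-321). Incubation was 1 h at 22 °C in the dark, then overnight at 4 °C, in 50 mM Tris pH 7 buffer with KF and DTT, after a 10-min compound pre-equilibration. Normalized ratios were fitted with a 4-parameter Hill equation to give IC50.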

SUDHL5 [6] = test: Induction of cytotoxicity in SUDHL5 cells, CellTiter-Glo (Assay 6); format: cell-based; settings: SUDHL5, 5 hours incubation, median, read-out: Cytotox SUDHL5 [M] (median)
How it was run: as §2

SUDHL5 [7] = test: Anti-proliferative effect in SUDHL5 cells, CellTiter-Glo (Assay 7); format: cell-based; settings: SUDHL5, 72 hours incubation, CellTiter-Glo, median, read-out: Antiproli SUDHL5 [M] (median)
How it was run: as §3

A2780 = test: Anti-proliferative effect in A2780 cells, CellTiter-Glo (Assay 7); format: cell-based; settings: Homo sapiens, A2780, 72 h, A2780, 72 hours incubation, CellTiter-Glo; several values per example; read-out: Antiproli A2780
How it was run: as §3

[8] = the molecule shown is the open-chain precursor; crosslinker bond; 11-membered ring; 2,3-bis(chloromethyl)pyridine HCl/Cs2CO3/NaI; MeCN; 73.1 mM; 75.0 °C

Chain of BCL-XL (Q07817 1-212): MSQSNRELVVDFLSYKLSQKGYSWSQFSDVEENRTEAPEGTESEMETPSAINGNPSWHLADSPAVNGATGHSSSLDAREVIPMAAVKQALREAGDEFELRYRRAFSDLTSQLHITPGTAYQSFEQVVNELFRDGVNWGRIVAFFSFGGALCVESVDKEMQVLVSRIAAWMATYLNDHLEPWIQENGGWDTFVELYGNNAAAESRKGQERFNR
Chain of BCL-2 (P10415 1-211): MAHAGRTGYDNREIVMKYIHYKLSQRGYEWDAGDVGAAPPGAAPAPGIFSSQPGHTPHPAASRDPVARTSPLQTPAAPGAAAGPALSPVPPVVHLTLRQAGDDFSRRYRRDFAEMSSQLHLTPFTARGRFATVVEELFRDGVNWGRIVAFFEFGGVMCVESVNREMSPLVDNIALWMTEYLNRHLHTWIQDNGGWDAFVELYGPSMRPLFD
Chain of MCL-1 (Q07820 173-321 K194A/K197A/R201A, looked up): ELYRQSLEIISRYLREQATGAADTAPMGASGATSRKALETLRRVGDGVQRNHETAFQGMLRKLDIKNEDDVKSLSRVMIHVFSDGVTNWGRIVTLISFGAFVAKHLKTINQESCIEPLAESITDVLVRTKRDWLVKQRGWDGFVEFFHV

SMILES: CCOC(=O)c1c(CCCOc2cccc3cc(F)ccc23)c2ccc(Cl)c3c2n1Cc1ccccc1COCc1c-3c(CC)nn1CCN1CCOCC1
ring closure, isolated yield ([1]; from CCOC(=O)c1c(CCCOc2cccc3cc(F)ccc23)c2ccc(Cl)c(-c3c(CC)nn(CCN4CCOCC4)c3CO)c2n1Cc1ccccc1CBr, ether bond, NaH/di-tert-butyl imidodicarbonate, DMF, 56.1 mM, […]): 10%
ring closure, yield of all isomers (from CCOC(=O)c1c(CCCOc2cccc3cc(F)ccc23)c2ccc(Cl)c(-c3c(CC)nn(CCN4CCOCC4)c3CO)c2n1Cc1ccccc1CBr, ether bond, NaH / di-tert-butyl imidodicarbonate, DMF, 56.1 mM, 50.0 °C, […]): 10%

SMILES: CCOC(=O)c1[nH]c2c(-c3c(CO)nn(C)c3C)c(Cl)ccc2c1CCCOc1cccc2cc(F)ccc12
ring closure, isolated yield ([1]; the molecule shown is the open-chain precursor, crosslinker bond, 1,2-bis(bromomethyl)benzene/Cs2CO3, MeCN/THF 2:1, 24.3 mM, 80.0 °C): 74%
ring closure, crude yield [2]: 90%

IC50 (BCL-XL): > 20 µM
IC50 (BCL-2): > 20 µM
EC50 (SUDHL5 [3]): 1.8e-06 M
EC50 (SUDHL10 [4]): 7.3e-06 M
pIC50 (MV-4-11): 5.28
SMILES: Cc1c2c(nn1C)COCc1nccnc1Cn1c(C(=O)O)c(CCCOc3cccc4ccccc34)c3ccc(Cl)c-2c31 (single isomer, unassigned; enantiomer 1) [Example 46, 3-Chloro-4,5-dimethyl-17-{3-[(naphthalen-1-yl)oxy]propyl}-5,7,9,14-tetrahydropyrazino-[2′,3′:3,4]pyrazolo[4′,3′:9,10][1,6]oxazacycloundecino[8,7,6-hi]indole-16-carboxylic Acid (Enantiomer 1)]
IC50 (SUDHL10 [5]): 7e-06 M
pIC50 (AMO-1; Homo sapiens, AMO1, 72 h): 5.21
pIC50 (HMC-1-8; 72 h): 4.92

IC50 (MCL-1): 1.5e-09 M
IC50 (BCL-XL): > 20 µM
IC50 (BCL-2): > 20 µM
EC50 (SUDHL5 [3]; Homo sapiens, SU-DHL-5, 3 h): 2.5e-06 M
EC50 (SUDHL10 [4]; Homo sapiens, SU-DHL10, 3 h): 1e-05 M
IC50 (SUDHL5 [7]; Homo sapiens, SU-DHL-5, 72 h): 2.5e-06 M
pIC50 (MV-4-11; Homo sapiens, MV4-11, 72 h): 4.82
pIC50 (A2780): < 4.48
SMILES: Cc1c2c(nn1C)COCc1nccnc1Cn1c(C(=O)O)c(CCCOc3cccc4cc(F)ccc34)c3ccc(Cl)c-2c31 (racemic) [Example 93, (rac)-3-Chloro-17-{3-[(6-fluoronaphthalen-1-yl)oxy]propyl}-4,5-dimethyl-5,7,9,14-tetrahydropyrazino[2′,3′:3,4]pyrazolo[4′,3′:9,10][1,6]oxazacycloundecino[8,7,6-hi]indole-16-carboxylic Acid]
IC50 (SUDHL5 [6]; Homo sapiens, SU-DHL-5, 5 h): 2.8e-06 M
IC50 (SUDHL10 [5]; Homo sapiens, SU-DHL10, 5 h): 6.7e-06 M
pIC50 (AMO-1; Homo sapiens, AMO1, 72 h): 5.14
pIC50 (HMC-1-8; 72 h): 4.49

EC50 (SUDHL5 [3]): 4.7e-06 M
EC50 (SUDHL10 [4]): 1.6e-05 M
IC50 (SUDHL5 [7]): 4.6e-06 M
pIC50 (MV-4-11): 4.93
SMILES: Cc1c2c(nn1C)COCc1nccnc1Cn1c(C(=O)O)c(CCCOc3cccc4ccccc34)c3ccc(Cl)c-2c31 (single isomer, unassigned; enantiomer 2) [Example 47, 3-Chloro-4,5-dimethyl-17-{3-[(naphthalen-1-yl)oxy]propyl}-5,7,9,14-tetrahydropyrazino-[2′,3′:3,4]pyrazolo[4′,3′:9,10][1,6]oxazacycloundecino[8,7,6-hi]indole-16-carboxylic Acid (Enantiomer 2)]
IC50 (SUDHL5 [6]): 4.8e-06 M
IC50 (SUDHL10 [5]): 1.9e-05 M
pIC50 (AMO-1): 4.94
pIC50 (HMC-1-8): 4.79

SMILES: CCOC(=O)c1[nH]c2c(-c3c(CO)nn(C)c3C)cccc2c1CCCOc1cccc2ccccc12
ring closure, yield after HPLC [8]: 20% and 30%

SMILES: CCOC(=O)c1c(CCCOc2cccc3ccccc23)c2cccc3c2n1Cc1ccccc1CNCc1nn(C)c(C)c1-3
ring closure, yield of all isomers (from CCOC(=O)c1c(CCCOc2cccc3ccccc23)c2cccc(-c3c(CBr)nn(C)c3C)c2n1Cc1ccccc1CN, amine bond, cesium carbonate, acetonitrile, 30.6 mM, 50.0 °C, 15.0 h): 47.3%

SMILES: CCOC(=O)c1c(CCCOc2cccc3ccccc23)c2ccc(Cl)c3c2n1Cc1ccccc1COCc1nn(C)c(C)c1-3
ring closure, isolated yield ([1]; from CCOC(=O)c1c(CCCOc2cccc3ccccc23)c2ccc(Cl)c(-c3c(CO)nn(C)c3C)c2n1Cc1ccccc1CBr, ether bond, NaH/di-tert-butyl imidodicarbonate, THF, 29.9 mM, […]): 76%
ring closure, yield of all isomers (from CCOC(=O)c1c(CCCOc2cccc3ccccc23)c2ccc(Cl)c(-c3c(CO)nn(C)c3C)c2n1Cc1ccccc1CBr, ether bond, sodium hydride / di-tert-butyl imidodicarbonate, THF, 29.9 mM, […], 72.0 h): 76%
